Series [1] deals with T1, Orexin/Hypocretin receptor type 1 (Homo sapiens, UniProt O43613).
T1 sequence (O43613 whole entry): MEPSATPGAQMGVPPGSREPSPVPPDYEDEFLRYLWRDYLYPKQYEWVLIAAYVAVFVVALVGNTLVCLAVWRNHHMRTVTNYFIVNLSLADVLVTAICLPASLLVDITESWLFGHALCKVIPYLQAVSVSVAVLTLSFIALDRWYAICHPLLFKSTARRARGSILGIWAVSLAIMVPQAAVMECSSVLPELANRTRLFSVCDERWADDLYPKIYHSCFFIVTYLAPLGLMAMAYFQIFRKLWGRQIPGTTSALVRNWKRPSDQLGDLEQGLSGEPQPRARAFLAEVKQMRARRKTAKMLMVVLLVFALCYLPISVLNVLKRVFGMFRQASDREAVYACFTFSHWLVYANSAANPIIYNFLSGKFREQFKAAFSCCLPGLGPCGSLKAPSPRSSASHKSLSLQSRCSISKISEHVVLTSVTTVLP
Kind of series: Antagonist activity at recombinant human OX1R expressed in CHO cells by FLIPR calcium based functional assay. The class given is cell-based.

Another series concerns the target T2, Orexin receptor type 2 (Homo sapiens, UniProt O43614).
T2 sequence (O43614 whole entry): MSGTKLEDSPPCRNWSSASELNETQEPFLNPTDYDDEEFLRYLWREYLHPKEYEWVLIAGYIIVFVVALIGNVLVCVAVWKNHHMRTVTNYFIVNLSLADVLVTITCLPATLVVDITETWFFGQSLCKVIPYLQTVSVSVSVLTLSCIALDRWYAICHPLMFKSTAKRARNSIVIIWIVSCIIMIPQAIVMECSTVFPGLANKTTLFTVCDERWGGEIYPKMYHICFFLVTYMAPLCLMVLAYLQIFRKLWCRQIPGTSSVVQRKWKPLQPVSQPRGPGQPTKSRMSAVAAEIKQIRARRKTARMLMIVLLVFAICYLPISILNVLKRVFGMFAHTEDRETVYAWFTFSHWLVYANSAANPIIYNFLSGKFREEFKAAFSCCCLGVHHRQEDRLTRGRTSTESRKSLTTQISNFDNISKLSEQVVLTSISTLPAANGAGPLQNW
Briefly: Antagonist activity at recombinant human OX2R expressed in CHO cells by FLIPR calcium based functional assay. The class given is cell-based.

For the next series, the system named is Liver microsomes. Briefly: Intrinsic clearance in human liver microsomes. The format is ADME, Microsome.
Series [2] deals with Rattus norvegicus. Kind of series: Neurotoxicity in CD rat assessed as impairment of motor coordination at 1 to 10 mg/kg, po by rotarod test in presence of 1 g/kg, ip ethanol. The format is toxicity, organism-based. Further details: dose 1-10 mg/kg, route oral. The following applies: in vivo.
For series [3], the system named is Rattus norvegicus. Kind of series: Neurotoxicity in CD rat assessed as impairment of motor coordination at 1 to 10 mg/kg, po by rotarod test. The following applies: in vivo. The format is toxicity, organism-based. Further details: dose 1-10 mg/kg, route oral.

As for `O=C(c1cccc2ccccc12)N1CCCC[C@H]1CCOc1ccc(F)cc1`, the results for the inhibitory constant (Ki) (in series [1]; on Orexin receptor type 2) were 6.31 nM and 126 nM, respectively.
For `O=C(c1ccccc1-c1ccccc1)N1CCCC[C@H]1CCOc1ccc(F)cc1F` the same measures were 0.158 nM and 0.794 nM.
For `O=C(NC[C@@H]1CCCCN1C(=O)c1ccccc1-c1ccccc1)c1ccccc1` the same measures were 7.94 nM and 20 nM.
As for `O=C(NC[C@@H]1CCCCN1C(=O)c1ccccc1-c1ccccc1)c1ccc(F)cc1`, the Ki in series [1] is 0.126 nM; at Orexin receptor type 2, 0.251 nM. This molecule displayed a CL in the series on Liver microsomes of 23 mL/min/g.
With `O=C(NC[C@H]1CCCCN1C(=O)c1ccccc1-c1ccccc1)c1ccc(F)cc1`, the results for the Ki (in series [1]; at Orexin receptor type 2) were 39.8 nM and 31.6 nM, respectively.
For `CN(C[C@@H]1CCCCN1C(=O)c1ccccc1-c1ccccc1)C(=O)c1ccc(F)cc1` the same measures were 501 nM and 1260 nM.
For `O=C(C[C@@H]1CCCCN1C(=O)c1ccccc1-c1ccccc1)Nc1ccccc1` the same measures were 50.1 nM and 31.6 nM.
The matching figures for `O=C(CC[C@@H]1CCCCN1C(=O)c1ccccc1-c1ccccc1)c1ccccc1`: 10 nM and 20 nM.
For the molecule `O=C(NC[C@@H]1CCCCN1C(=O)c1ccccc1-c1ccccc1)Nc1ccccc1`, the inhibition constant (Ki) in series [1] was 1 nM; at Orexin receptor type 2, 5.01 nM.
The matching figures for `COc1cccc(C(=O)N2CCCCC2CCOc2ccc(Cl)c(Cl)c2)c1` (racemic): 126 nM and 501 nM.
For the molecule `N#Cc1cccc(C(=O)N2CCCCC2CCOc2ccc(Cl)c(Cl)c2)c1` (racemic), the Ki in series [1] was 398 nM; on Orexin receptor type 2, 631 nM.
On to `O=C(c1ccc(Cl)c(Cl)c1)N1CCCCC1CCOc1ccc(Cl)c(Cl)c1` (racemic), for which the Ki is 2510 nM in series [1] and above 3160 nM at Orexin receptor type 2.
With `O=C(c1ccccc1-c1ccccc1)N1CCCCC1CCOc1ccc(F)cc1` (racemic), the Ki in series [1] is 5.01 nM; on Orexin receptor type 2, 20 nM. The molecule further came in with a CL in the series with Liver microsomes above 50 mL/min/g.
In the case of `Cc1ccc(-c2nc3ccc(C)cn3c2CC(=O)N(C)C)cc1` [ZOLPIDEM], the Activity entry in the series with Rattus norvegicus [2] and with Rattus norvegicus [3] was “Toxic” each time.

For the origin of these results see ChEMBL document CHEMBL1828583, “Discovery process and pharmacological characterization of a novel dual orexin 1 and orexin 2 receptor antagonist useful for treatment of sleep disorders” (Bioorg Med Chem Lett, 2011).
